This assay concerns the target T1, human PD-1 / PD-L1-Ig binding on Jurkat cell line over-expressing human PD-1 (Jurkat-PD-1) (Homo sapiens, UniProt Q15116).
T1 construct: expressed in transfected cells; host or cells: Jurkat
Kind of assay: Jurkat-PD-1 Cell Binding High-Content Screening Assay (CBA). Particulars: PE-labeled PD-L1-Ig 20 nM final. The assay is classed as cell-based. In outline: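 Read-out: high-content imaging of PE-tagged PD-L1-Ig bound to Jurkat cells overexpressing human PD-1, after fixation with 4% paraformaldehyde and Hoechst 33342 nuclear staining. Ligand was used at 20 nM final for 1 hour, after a 2 h compound exposure at 37° C in serum-containing DMEM.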

Where [1] appears, read: Jurkat-PD-1 cells, read-out: Jurkat HPD1_PDL1 IC50.

From US20250163104A1, “MACROCYCLIC IMMUNOMODULATORS” (priority 2021, published 2025) come the findings set out here.

Where two headings read alike, the source gives them in different places. *1 amine or outer side, *2 acyl side, *3 side chain or, on linkers, in order; H or OH if unused. Where a SMILES comes first, the peptide text is derived from it. Bridges are numbered along the chain shown (N, C = ends). [ ]: non-standard residue; d: D form. The star is where a group is joined. X3 = O=C([C@H](CCCNC[C@@H](O)[C@H](O)[C@H](O)[C@@H](O)[C@H](O)CO)N[*:1])[*:2]; Bip(4'-NHAc) = CC(=O)Nc1ccc(-c2ccc(C[C@H](N)C(=O)O)cc2)cc1; Phe(4-COOH) = N[C@@H](Cc1ccc(C(=O)O)cc1)C(=O)O; Bip = N[C@@H](Cc1ccc(-c2ccccc2)cc1)C(=O)O; Phe(3-Me) = Cc1cccc(C[C@H](N)C(=O)O)c1; Phe(2-F) = N[C@@H](Cc1ccccc1F)C(=O)O; 4Pal = N[C@@H](Cc1ccncc1)C(=O)O; Cha = N[C@@H](CC1CCCCC1)C(=O)O; Cit = NC(=O)NCCC[C@H](N)C(=O)O; Carboxymethyl = O=C(O)C*; Orn = NCCC[C@H](N)C(=O)O; Pra = C#CC[C@H](N)C(=O)O; Dab = NCC[C@H](N)C(=O)O; Nva = CCC[C@H](N)C(=O)O; Dap = NC[C@H](N)C(=O)O; Piv = CC(C)(C)C(=O)*

T1 sequence (Q15116 25-288): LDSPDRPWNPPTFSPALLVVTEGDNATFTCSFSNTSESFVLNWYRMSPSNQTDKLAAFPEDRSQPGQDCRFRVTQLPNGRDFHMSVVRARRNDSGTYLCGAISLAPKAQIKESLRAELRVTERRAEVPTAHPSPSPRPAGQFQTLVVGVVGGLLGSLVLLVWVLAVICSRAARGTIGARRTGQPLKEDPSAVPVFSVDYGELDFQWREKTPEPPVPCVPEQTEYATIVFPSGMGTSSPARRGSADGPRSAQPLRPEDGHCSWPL

With `CC(C)C[C@@H]1NC(=O)[C@H](Cc2c[nH]c3ccccc23)NC(=O)[C@H](CC(=O)O)NC(=O)[C@H](Cc2ccc(OCC(=O)O)cc2)NC(=O)[C@H](Cc2ccc(OCC(=O)O)cc2)NC(=O)CSC[C@@H](C(=O)NCC(N)=O)NC(=O)[C@H](CO)NC(=O)[C@H](C(C)C)NC(=O)[C@H](CC2CCCCC2)NC(=O)[C@H](CCN)NC(=O)[C@@H](CC(C)C)NC(=O)[C@H](CCCN)NC(=O)[C@H](C(C)C)NC(=O)[C@H](Cc2ccc(-c3ccccc3)cc2)NC1=O` [Compound 1404] ({CH2CO}-Y(Carboxymethyl)Y(Carboxymethyl)DWL[Bip]V[Orn][dL][Dab][Cha]VSCG-NH2; thioether N-14), the half-inhibitory concentration (IC50) under setting [1] stood at 5.1 nM.

Consider `CC(C)C[C@@H]1NC(=O)[C@H](Cc2c[nH]c3ccccc23)NC(=O)[C@H](CC(=O)O)NC(=O)[C@H](Cc2ccc(O)cc2)NC(=O)[C@H](Cc2ccccc2)NC(=O)CSC[C@@H](C(=O)N[C@@H](C)C(N)=O)NC(=O)[C@H](CO)NC(=O)[C@H](C(C)C)NC(=O)[C@H](CC(C)C)NC(=O)[C@H](CCN)NC(=O)[C@@H](CC(C)C)NC(=O)[C@H](CCN)NC(=O)[C@H](CCCNC(N)=O)NC(=O)[C@H](Cc2ccc(-c3ccccc3)cc2)NC1=O` [Compound 1228] ({CH2CO}-FYDWL[Bip][Cit][Dab][dL][Dab]LVSCA-NH2; thioether N-14), for which the 50% inhibitory concentration (IC50) under setting [1] came out at 17.5 nM.

`Cc1cccc(C[C@@H]2NC(=O)[C@H](CC(=O)O)NC(=O)[C@H](Cc3ccc(OCC(=O)O)cc3)NC(=O)[C@H](Cc3ccncc3)NC(=O)CSC[C@@H](C(=O)N[C@@H](CCNC(=O)C(C)(C)C)C(N)=O)NC(=O)[C@H]([C@@H](C)O)NC(=O)[C@H](C(C)C)NC(=O)[C@H](CC3CCCCC3)NC(=O)[C@H](CCN)NC(=O)[C@@H](CC(C)C)NC(=O)[C@H](CCN)NC(=O)[C@H](Cc3ccc(OCC(=O)O)cc3)NC(=O)[C@H](Cc3ccc(-c4ccccc4)cc3)NC(=O)[C@H](Cc3ccc(OCC(=O)O)cc3)NC2=O)c1` [Compound 2060] ({CH2CO}-[4Pal]Y(Carboxymethyl)D[Phe(3-Me)]Y(Carboxymethyl)[Bip]Y(Carboxymethyl)[Dab][dL][Dab][Cha]VTC[Dab](Piv)-NH2; thioether N-14): the 50% inhibitory concentration (IC50) under setting [1] worked out at 19.3 nM.

In the case of `CC(=O)Nc1ccc(-c2ccc(C[C@@H]3NC(=O)[C@H](CN)NC(=O)CSC[C@@H](C(=O)N[C@@H](C)C(N)=O)NC(=O)[C@H]([C@@H](C)O)NC(=O)[C@H](C(C)C)NC(=O)[C@H](CC4CCCCC4)NC(=O)[C@H](CCN)NC(=O)[C@@H](CC(C)C)NC(=O)[C@H](CCCN)NC(=O)[C@H](CCCNC(N)=O)NC(=O)[C@H](Cc4ccc(-c5ccccc5)cc4)NC(=O)[C@H](C(C)C)NC(=O)[C@H](Cc4c[nH]c5ccccc45)NC(=O)[C@H](CC(=O)O)NC3=O)cc2)cc1` [Compound 2124] ({CH2CO}-[Dap][Bip(4'-NHAc)]DWV[Bip][Cit][Orn][dL][Dab][Cha]VTCA-NH2; thioether N-14), the IC50 under setting [1] came to 22.6 nM.

As to `CC(C)C[C@H]1NC(=O)[C@H](CCCN)NC(=O)[C@H](CCC(=O)O)NC(=O)[C@H](Cc2ccc(-c3ccccc3)cc2)NC(=O)[C@H](C(C)C)NC(=O)[C@H](Cc2ccccc2F)NC(=O)[C@H](CC(=O)O)NC(=O)[C@H](Cc2ccncc2)NC(=O)[C@H](Cc2ccncc2)NC(=O)CSC[C@@H](C(=O)N[C@@H](C)C(N)=O)NC(=O)[C@H]([C@@H](C)O)NC(=O)[C@H](C(C)C)NC(=O)[C@H](CC2CCCCC2)NC(=O)[C@H](CCN)NC1=O` [Compound 2211] ({CH2CO}-[4Pal][4Pal]D[Phe(2-F)]V[Bip]E[Orn][dL][Dab][Cha]VTCA-NH2; thioether N-14), the IC50 under setting [1] came to 20.3 nM.

Consider `CC(C)C[C@H]1NC(=O)[C@H](CCCN)NC(=O)[C@H](CCCCN)NC(=O)[C@H](Cc2ccc(-c3ccccc3)cc2)NC(=O)[C@H](C(C)C)NC(=O)[C@H](Cc2c[nH]c3ccccc23)NC(=O)[C@H](CC(=O)O)NC(=O)[C@H](Cc2ccncc2)NC(=O)[C@H](CN)NC(=O)CSC[C@@H](C(=O)N[C@@H](CCCN)C(N)=O)NC(=O)[C@H](CCCNC(=N)N)NC(=O)[C@H](C(C)C)NC(=O)[C@H](CC2CCCCC2)NC(=O)[C@H](CCN)NC1=O` [Compound 2254] ({CH2CO}-[Dap][4Pal]DWV[Bip]K[Orn][dL][Dab][Cha]VRC[Orn]-NH2; thioether N-14), for which the 50% inhibitory concentration (IC50) under setting [1] is 123 nM.

With `CCC(C)[C@@H]1NC(=O)[C@H](Cc2ccc(-c3ccccc3)cc2)NC(=O)[C@H](C(C)C)NC(=O)[C@H](Cc2cccc(C)c2)NC(=O)[C@H](CC(=O)O)NC(=O)[C@H](Cc2ccc(OCC(=O)O)cc2)NC(=O)[C@H](CN)NC(=O)CSC[C@@H](C(=O)N[C@@H](C)C(N)=O)NC(=O)[C@H](CO)NC(=O)[C@H](C(C)C)NC(=O)[C@H](CC2CCCCC2)NC(=O)[C@H](CCN)NC(=O)[C@@H](CC(C)C)NC(=O)[C@H](CCCN)NC1=O` (stereo partly drawn) [Compound 2533], under setting [1], the IC50 came out at 43.7 nM.

As for `C#CC[C@H](NC(=O)[C@@H]1CSCC(=O)N[C@@H](CCC)C(=O)N[C@@H](Cc2ccc(OCC(=O)O)cc2)C(=O)N[C@@H](CC(=O)O)C(=O)N[C@@H](Cc2cccc(C)c2)C(=O)N[C@@H](Cc2ccc(OCC(=O)O)cc2)C(=O)N[C@@H](Cc2ccc(-c3ccccc3)cc2)C(=O)N[C@@H](Cc2ccc(OCC(=O)O)cc2)C(=O)N[C@@H](CCCNC[C@@H](O)[C@H](O)[C@H](O)[C@@H](O)[C@H](O)CO)C(=O)N[C@H](CC(C)C)C(=O)N[C@@H](CCC)C(=O)N[C@@H](CC2CCCCC2)C(=O)N[C@@H](C(C)C)C(=O)N[C@@H](CCC(=O)O)C(=O)N1)C(=O)O` [Compound 2698] ({CH2CO}-[Nva]Y(Carboxymethyl)D[Phe(3-Me)]Y(Carboxymethyl)[Bip]Y(Carboxymethyl)[X3][dL][Nva][Cha]VEC[Pra]-OH; thioether N-14), under setting [1], the IC50 came out at 129 nM.

Take `CC(C)C[C@H]1NC(=O)[C@H](CCCN)NC(=O)[C@H](CCC(=O)O)NC(=O)[C@H](Cc2ccc(-c3ccccc3)cc2)NC(=O)[C@H](C(C)C)NC(=O)[C@H](Cc2c[nH]c3ccccc23)NC(=O)[C@H](CC(=O)O)NC(=O)[C@H](Cc2ccc(OCC(=O)O)cc2)NC(=O)[C@H](CN)NC(=O)CSC[C@@H](C(=O)N[C@@H](C)C(N)=O)NC(=O)[C@H]([C@@H](C)O)NC(=O)[C@H](C(C)C)NC(=O)[C@H](Cc2ccccc2F)NC(=O)[C@H](CCN)NC1=O` [Compound 1485] ({CH2CO}-[Dap]Y(Carboxymethyl)DWV[Bip]E[Orn][dL][Dab][Phe(2-F)]VTCA-NH2; thioether N-14): the IC50 under setting [1] stood at 15.5 nM.

In the case of `CC(C)C[C@H]1NC(=O)[C@H](CCCN)NC(=O)[C@H](CCCNC(N)=O)NC(=O)[C@H](Cc2ccc(-c3ccccc3)cc2)NC(=O)[C@H](C(C)C)NC(=O)[C@H](Cc2c[nH]c3ccccc23)NC(=O)[C@H](CC(=O)O)NC(=O)[C@H](Cc2cccnc2)NC(=O)[C@H](CN)NC(=O)CSC[C@@H](C(=O)N[C@@H](C)C(N)=O)NC(=O)[C@H]([C@@H](C)O)NC(=O)[C@H](C(C)C)NC(=O)[C@H](CC2CCCCC2)NC(=O)[C@H](CCN)NC1=O` [Compound 2094], the IC50 under setting [1] was 8.7 nM.

As for `CC(C)C[C@H]1NC(=O)[C@H](CCCN)NC(=O)[C@H](CCC(=O)O)NC(=O)[C@H](Cc2ccc(-c3ccccc3)cc2)NC(=O)[C@H](C(C)C)NC(=O)[C@H](Cc2c[nH]c3ccccc23)NC(=O)[C@H](CC(=O)O)NC(=O)[C@H](Cc2ccc(C(=O)O)cc2)NC(=O)[C@H](Cc2ccncc2)NC(=O)CSC[C@@H](C(=O)N[C@@H](C)C(N)=O)NC(=O)[C@H]([C@@H](C)O)NC(=O)[C@H](C(C)C)NC(=O)[C@H](CC2CCCCC2)NC(=O)[C@H](Cc2c[nH]cn2)NC1=O` [Compound 1597], the IC50 (Jurkat HPD1_PDL1 IC50, Jurkat-PD-1 cells) was determined as 20.2 nM.

On to `CCCC[C@H]1NC(=O)[C@H](CCCN)NC(=O)[C@H]([C@@H](C)CC)NC(=O)[C@H](Cc2ccc(-c3ccccc3)cc2)NC(=O)[C@H](C(C)C)NC(=O)[C@H](Cc2c[nH]c3ccccc23)NC(=O)[C@H](CC(=O)O)NC(=O)[C@H](Cc2ccc(OCC(=O)O)cc2)NC(=O)[C@H](CN)NC(=O)CSC[C@@H](C(=O)N[C@@H](C)C(N)=O)NC(=O)[C@H]([C@@H](C)O)NC(=O)[C@H](C(C)C)NC(=O)[C@H](CC2CCCCC2)NC(=O)[C@H](CCN)NC1=O` [Compound 1708], for which, under setting [1], the IC50 is 23 nM.

`CC(C)C[C@H]1NC(=O)[C@H](CCCN)NC(=O)[C@H](CCC(=O)O)NC(=O)[C@H](Cc2ccc(-c3ccccc3)cc2)NC(=O)[C@H](C(C)C)NC(=O)[C@H](Cc2c[nH]c3ccccc23)NC(=O)[C@H](CC(=O)O)NC(=O)[C@H](Cc2ccc3ncccc3c2)NC(=O)[C@H](Cc2ccc(OCC(=O)O)cc2)NC(=O)CSC[C@@H](C(=O)N[C@@H](C)C(N)=O)NC(=O)[C@H]([C@@H](C)O)NC(=O)[C@H](C(C)C)NC(=O)[C@H](CC2CCCCC2)NC(=O)[C@H](CCN)NC1=O` [Compound 2178]: the IC50 under setting [1] was 52.7 nM.

On to `CC(C)C[C@@H]1NC(=O)[C@H](Cc2c[nH]c3ccccc23)NC(=O)[C@H](CC(=O)O)NC(=O)[C@H](Cc2ccc(O)cc2)NC(=O)[C@H](Cc2ccccc2)NC(=O)CSC[C@@H](C(=O)N[C@@H](C)C(N)=O)NC(=O)[C@H]([C@@H](C)O)NC(=O)[C@H](C(C)C)NC(=O)[C@H](CC(C)C)NC(=O)[C@H](CC(N)=O)NC(=O)[C@@H](CC(C)C)NC(=O)[C@H](CCN)NC(=O)[C@H](C(C)C)NC(=O)[C@H](Cc2ccc(-c3ccccc3)cc2)NC1=O` [Compound 1058] ({CH2CO}-FYDWL[Bip]V[Dab][dL]NLVTCA-NH2; thioether N-14), for which the IC50 under setting [1] was 18.1 nM.

In the case of `CC(C)C[C@H]1NC(=O)[C@H](CCCN)NC(=O)[C@H](C(C)C)NC(=O)[C@H](Cc2ccc(-c3ccccc3)cc2)NC(=O)[C@H](C(C)C)NC(=O)[C@H](Cc2c[nH]c3ccccc23)NC(=O)[C@H](CC(=O)O)NC(=O)[C@H](Cc2ccc(C(=O)O)cc2)NC(=O)[C@H](Cc2ccc(OCC(=O)O)cc2)NC(=O)CSC[C@@H](C(=O)N[C@@H](C)C(N)=O)NC(=O)[C@H](CCCN)NC(=O)[C@H](C(C)C)NC(=O)[C@H](CC2CCCCC2)NC(=O)[C@H](CCN)NC1=O` [Compound 1742] ({CH2CO}-Y(Carboxymethyl)[Phe(4-COOH)]DWV[Bip]V[Orn][dL][Dab][Cha]V[Orn]CA-NH2; thioether N-14), the IC50 under setting [1] was found to be 6.6 nM.
